In the test the test system is advanced solid tumors. In words: Phase I clinical trial: preliminary antitumor activity. In kind it is in vivo, human. As to conditions: patients with lung and renal cancer. Here is the method:
Adult patients with histologically confirmed advanced solid tumors were enrolled in a 3+3 dose escalation Phase I study evaluating 3 intermittent schedules of administration for compound A: QW (once weekly), QD×3d QW (3 days on 4 days off), and QD×5d QW (5 days on 2 days off), in comparison with daily dosing (QD). Safety, maximum tolerated dose (MTD), pharmacokinetics (PK) and preliminary antitumor activity were evaluated.

Take `CC(C)n1nc(-c2ccc3oc(N)nc3c2)c2c(N)ncnc21` [compound A]: the Preliminary anti-tumor activity entry is reported as “Preliminary anti-tumor activity was seen”.

These data come from patent US9174994B2, “Enhanced treatment regimens using mTor inhibitors” (INTELLIKINE LLC, priority 2011, dated 2015).
